The record followed here is a melting point compilation (Tetko et al.; mined from patent text by program, amines drawn as free bases though some values may be those of a salt).

One may read the melting point as the temperature of the solid-liquid transition. Turning to `COC(=O)C1Cc2cccc(OC)c2N1S(=O)(=O)c1ccc(I)cc1` (stereo not drawn), the melting point was 161 °C.
In turn, `Cc1nn(C)c(=O)n1-c1ccc(N)cc1` came in with a melting point of 160 °C.
`CCOCCOc1ccc(-c2ccc3c(c2)C=C(C(=O)O)CCN3S(C)(=O)=O)cc1` gave a melting point of 222 to 225 °C.
Consider `CCCCCCCCCCCCCCCCOCC(O)COC(c1ccccc1)(c1ccccc1)c1ccccc1` (stereo not drawn), for which the melting point worked out at 49 °C.
In turn, `COc1cc(C(=O)C(C)C)cc([N+](=O)[O-])c1O` gave a melting point of 85 to 87 °C.
`CC1=CC=C[C@@H](O)[C@H]1O` gave a melting point of 56 to 57 °C.
`Cc1nnc(Cl)c(-c2c(F)cc(OCCCN(C)C)cc2F)c1-c1ccc(Cl)cc1` showed a melting point of 112 to 113 °C.
For `O=C(O)CCCCCCc1ccccc1CO`, the melting point is 75 to 77 °C.
Under `O=C(O)c1ccc(Oc2c(-c3ccc(O)cc3)c(C(F)(F)F)cc3ccccc23)cc1` stands 244 to 245 °C; under `CCCCCCCCCCCc1cc2ccc(C(=O)OCC(O)CO)cc2[nH]1` (racemic), 110 to 112 °C.
Under `CC(=O)c1ccc(S(=O)(=O)NN2CCCCC2)cc1` stands 137 to 139 °C.
For the compound `Cc1coc(C(=O)c2ccc(F)c(F)c2Nc2ccc(I)cc2F)n1`, the melting point was determined as 127 °C.
`COC(=O)c1ccc(-c2nc(-c3ccc4c(c3)C(C)(C)CCC4(C)C)co2)cc1` came in with a melting point of 207 to 208 °C.
Under `Cn1cc(Oc2ccccc2)c(=O)c(-c2cccc(C(F)(F)F)c2)c1` stands 144 to 145 °C; under `CC(=O)Cc1ccc(OCC2CO2)cc1` (stereo not drawn), 43 °C.
The compound `CC(=O)Nc1sc([N+](=O)[O-])cc1C(=O)O` had a melting point of 238 to 240 °C.
`C=C(CC(N)C(=O)OCC)CC(NC=O)(C(=O)OCC)C(=O)OCC` (stereo not drawn): the melting point came to 50 °C.
As for `CCCN(CCC)S(=O)(=O)c1cc(C(=O)CCl)ccc1Cl`, the melting point is 76 °C.
Under `CN(C)CCCSc1cccc2c1NC(=O)CC2c1ccccc1` (stereo not drawn) stands 64 to 66 °C; under `O=C(O)C1=CCc2ccccc21`, 157 °C.
Regarding `CCOC(=O)c1ccc(C)c(NC(=O)C2=C(C)OCCS2)c1`, the melting point lay within 105 to 107 °C.
The compound `CCOc1nn(Cc2ccc(OCc3ccc(-c4ccccc4)cn3)cc2)cc1CCC(=O)O` showed a melting point of 127 to 128 °C.
Consider `Cc1ccc(-c2c(-c3ccc(S(C)(=O)=O)cc3)cnn(-c3ccc(F)cc3)c2=O)cc1F`, for which the melting point is 245 to 248 °C.
As to `O=C1Nc2cc(Cl)ccc2C(=O)C1c1cc2ccccc2o1` (stereo not drawn), the melting point was found to be 342 °C.
In turn, `O=c1c2cc(Br)ccc2nc(CSc2ncnc3[nH]cnc23)n1-c1ccccc1Cl` gave a melting point of 212 to 242 °C.
Under `Cc1cc([N+](=O)[O-])cnc1CCCC#N` stands 51.5 to 53 °C; under `CCc1cccc(C)c1CNc1cc(C(=O)N(C)C)nc2c(C)c(C)[nH]c12`, 260 to 262 °C; under `CC(=O)CN1CCN(c2cc3c(cc2F)c(=O)c(C(=O)O)c2n3C(C)S2)CC1` (stereo not drawn), 215 to 218 °C.
On to `O=C1CN=C(c2ccccc2)c2cc(C(=O)c3ccc(Cl)cc3)ccc2N1`, for which the melting point came to 230 °C.
For the compound `CC(C)NC(=O)N1CCc2[nH]cnc2C1C1CCCCC1` (stereo not drawn), the melting point amounted to 254 °C.
`COC1CCC2C3CCC4CC(=O)C(C)(C)CC4(C)C3CCC12C` (stereo not drawn): the melting point fell in the range of 116 to 120 °C.
Under `COc1ccc2nccc(NC(=O)C3CCN(CCc4cnc5ccccc5n4)CC3)c2n1` stands 170 °C.
The compound `CCCCCC(CC(=O)Nc1cc(CCCNC(N)=O)ccc1C(C)(C)C)c1ccc(OC)cc1OC` (stereo not drawn) displayed a melting point of 125 °C.
Under `CCCCCC(CC(=O)O)c1ccc(OC)cc1OC` (single isomer, unassigned; (+)) stands 51 to 52 °C; under `OCc1cc(Br)cc(I)c1`, 110 to 112 °C.
`CCC1(COc2ccc(C(=O)O)cc2)COC1` displayed a melting point of 128 °C.
Under `Cn1cc(C2=C(c3cn(C)c4cc([N+](=O)[O-])ccc34)C(=O)N(COP(=O)(OCc3ccccc3)OCc3ccccc3)C2=O)c2ccccc21` stands 105 to 109 °C; under `CC1(OCc2ccccc2F)COC(c2ccco2)OC1` (stereo not drawn), 67.5 to 69 °C.
For `CNC(=S)C1(c2ccccn2)CCCS1` (stereo not drawn), the melting point is 131 °C.
Regarding `NC(=O)c1c(CN2CCC(c3ccccc3)(c3ccccc3)CC2)ncn1Cc1ccc(Cl)cc1`, the melting point lay in the range of 227 to 228 °C.
Under `Nc1ccccc1C(=O)NC(=O)Nc1ccc(Oc2ncc(Br)cn2)c(Cl)c1` stands 196 to 200 °C; under `CN1N=C(c2ccccc2)CC1=O`, 211 °C; under `O=C(NCCO)c1cccc(-c2cccn3nc(Nc4cccc(C(F)(F)F)c4)nc23)c1`, 215 to 216 °C.
`COc1ccccc1N1CCN([C@@H]2Cc3cccc(O)c3C[C@H]2O)CC1` (relative stereo): the melting point was 199 to 201 °C.
`Cc1cnc(-c2ncn3c2[C@@H]2CCCN2C(=O)c2c(Cl)cccc2-3)o1` displayed a melting point of 228 to 230 °C.
On to `CN(C)CCC1(CO)c2ccccc2N(C)c2ccc(Cl)cc21` (stereo not drawn), for which the melting point was 100 °C.
As to `CC(C)CC(=O)Nc1cccc(-c2ccnc3c(-c4cccc(C#N)c4)cnn23)c1`, the melting point fell in the range of 166 to 167 °C.
`CCOP(=O)(CCOc1ccc(C(=O)O)cc1)OCC` gave a melting point of 86 to 88 °C.
On to `CCC(C)(C)c1ccc(OCC2CN=C(N)O2)cc1` (stereo not drawn), for which the melting point amounted to 104 °C.
Regarding `O=C(CCNNC(=O)c1ccccc1)OCc1ccccc1`, the melting point is 65 °C.
Under `Cc1ccc(C2CCN(Cc3ccc(COc4cccc5c4CN(C4CCC(=O)NC4=O)C5=O)cc3)CC2)cc1` (stereo not drawn) stands 208 to 210 °C.
As for `COc1ccc(C(=O)Nc2ccccc2)cc1NCc1ccoc1`, the melting point was in the range of 188 to 190 °C.
`O=C(Nc1ccc(F)cc1F)c1cccc(Oc2cccc(C(F)(F)F)c2)n1` displayed a melting point of 110 to 112 °C.
Under `O=C(SCCC(=O)N1C(c2ccccc2O)CC[C@H]1C(=O)N[C@@H](Cc1ccccc1)C(=O)O)c1ccccc1` (stereo partly drawn) stands 72 to 102 °C; under `CCC(OCC(F)(F)F)c1ccc(Cl)c2nc3n(c12)CCCN3c1ccc(Cl)cc1Cl` (stereo not drawn), 146 to 148 °C.
The compound `COc1cc(CNC(=O)c2nc3cnn(CCCc4ccccc4)c3c(=O)[nH]2)ccc1F` came in with a melting point of 155 to 157 °C.
For `CN(C)Cc1ccccc1Sc1ccc([N+](=O)[O-])cc1[N+](=O)[O-]`, the melting point fell in the range of 128 to 129 °C.
Take `OCc1c(-c2ccccc2)nn2c1-c1ccccc1CC2`: the melting point fell in the range of 185 to 187 °C.
Under `COC(=O)C(C)(C)Nc1cc(Cl)ccc1[N+](=O)[O-]` stands 87 to 89 °C; under `CCOC(=O)N1CCc2nnc(NN=C(C)C)cc2C1`, 171 to 174 °C.
The compound `O=C(NC1CCN(Cc2ccccc2)CC1)c1ccccc1OCc1ccnc2ccccc12` yielded a melting point of 144 to 146 °C.
Under `Nc1c(OCCCBr)cccc1[N+](=O)[O-]` stands 88 to 89 °C; under `Cc1ccc(NC(=O)/C=C/c2ccccc2C(F)(F)F)cc1NC(=N)c1ccccc1`, 112 to 116 °C.
`O=C(O)c1ccccc1C(=O)c1ccc(F)cc1F` returned a melting point of 129 to 131 °C.
Under `O=C(O)CCC(=O)Nc1ccc(-c2ccncc2)cc1` stands 251 to 252 °C.
In turn, `CNC(=O)c1cn(CCO)nc1[N+](=O)[O-]` gave a melting point of 138 to 140 °C.
In turn, `CN1CC(c2nccc(CCc3ccccc3)n2)=C(O)C1=O` had a melting point of 118 to 119 °C.
For `CCOC(=O)N[C@H](C(=O)NN(Cc1ccc(-c2cncs2)cc1)C[C@H](O)[C@H](Cc1ccccc1)NC(=O)[C@@H](NC(=O)OC)C(C)C)C(C)C`, the melting point lay within 243 to 244 °C.
In the case of `O=C(c1cccs1)c1ccc(Cl)cc1Cl`, the melting point was 75 °C.
Under `OCCCn1c(C2CCCCC2)nc2cc(Cl)ccc21` stands 95 °C.
The compound `CCOC(=O)C1=C(COC(C)=O)Nc2nc(N)nc(N)c2C1c1cccc([N+](=O)[O-])c1` (stereo not drawn) yielded a melting point of 219 °C.
`CC(C)C(C(=O)O)c1ccc(OCCNC(=O)C2Cc3ccccc3N2S(=O)(=O)c2ccc(-c3cc(C(F)(F)F)ccc3Cl)cc2)cc1` (stereo not drawn) gave a melting point of 84 to 88 °C.
As for `COc1cc(COc2nn(-c3ccccc3)cc2/C=C/S(C)=O)ccc1OCc1nc(-c2ccco2)oc1C` (stereo not drawn), the melting point lay in the range of 156 to 157 °C.
Under `Cc1[nH]c(C=O)c(C)c1-c1nc2ccc(C(=O)c3ccccc3)cc2[nH]1` stands 253 to 255 °C.
Turning to `COCCOc1c(F)c(Oc2ccc(S(C)(=O)=O)nc2)cc2cc(C3=NCC(CCO)S3)[nH]c12` (stereo not drawn), the melting point lay in the range of 160 to 161 °C.
`O=C1c2c(Cl)cccc2-n2cnc(-c3cccs3)c2[C@@H]2CCCN12` showed a melting point of 226 to 227 °C.
With `CCOC(=O)Cc1c(C(=O)OCC)[nH]c2ccc(F)cc12`, the melting point lay in the range of 128 to 130 °C.
With `CCOC(=O)c1cnoc1-c1cccc(OC)c1`, the melting point lay within 85 to 87 °C.
On to `CC(C)(C)OC(=O)N[C@H]1CC[C@H](CN2CCN(c3cccc4c3CCC4)CC2)CC1`, for which the melting point fell in the range of 131 to 134 °C.
Regarding `CCc1c(C(=O)O)nn(-c2ccc(Cl)cc2Cl)c1-c1ccc(Cl)cc1`, the melting point came to 215 °C.
With `CCCCCCCCc1ccc(OCC(O)Cn2ccc3cc(C(N)=O)ccc32)cc1` (stereo not drawn), the melting point was 118 to 119 °C.
In turn, `COc1ccc(CCNc2ncnc3occc23)cc1` showed a melting point of 135 to 136 °C.
`CCN(CC)C(=O)n1cnc(S(=O)(=O)CC2CCCCO2)n1` (stereo not drawn) had a melting point of 122 °C.
In the case of `CC(C)P1(=O)c2ccccc2CN1c1cccc(C(F)(F)F)c1` (stereo not drawn), the melting point fell in the range of 117 to 119 °C.
`CC(=O)C=C(C)Nc1ccccc1C#N`: the melting point was 100 °C.
For `COc1ccc(-c2c(C)cc3c(O)cc(C)nn23)c(C)c1`, the melting point is 234 to 237 °C.
`Cc1ccc(-c2c(NS(=O)(=O)c3ccc(C(C)(C)C)cc3)nc(-c3cccs3)nc2OCCO)cc1` displayed a melting point of more than 300 °C.
In turn, `CC(C)c1cccc(C(C)C)c1NC(=O)CSCCCCCCCCCCCCN1CCN(c2ccccc2)CC1` yielded a melting point of 76.5 to 77.5 °C.
